What was measured:
[1] = tested on: HUVEC; assay: Proliferation of endothelial cells HUVEC with FGF-2; format: cell-based; conditions: Homo sapiens, FGF-2 25 ng/ml, 96 hours, read-out: Cell growth suppression, IC50
Method: Endothelial cells HUVEC were sawn in 96-cavity plates and cultivate for 24 hours. After that, the following was added to the cells: • 1) inhibitor RPT835, or • 2) inhibitor described by Formula IX in this invention, or • 3) brivanib—multi-kinase inhibitor of FGFR/VEGFR, and also to all cells—FGF-2 in a concentration of 25 ng/ml.
The cells were cultivated for 96 hours in general and then were calculated.

[2] = biological target: T1, FRS2 (Homo sapiens, UniProt Q8WU20); assay: FRS2 phosphorylation in FGF-2-stimulated Snu16 cells (Western blotting); format: cell-based; parameters: endogenous in cells; host or cells: Snu16; conditions: FGF-2 stimulation
T1 sequence (Q8WU20 1-508): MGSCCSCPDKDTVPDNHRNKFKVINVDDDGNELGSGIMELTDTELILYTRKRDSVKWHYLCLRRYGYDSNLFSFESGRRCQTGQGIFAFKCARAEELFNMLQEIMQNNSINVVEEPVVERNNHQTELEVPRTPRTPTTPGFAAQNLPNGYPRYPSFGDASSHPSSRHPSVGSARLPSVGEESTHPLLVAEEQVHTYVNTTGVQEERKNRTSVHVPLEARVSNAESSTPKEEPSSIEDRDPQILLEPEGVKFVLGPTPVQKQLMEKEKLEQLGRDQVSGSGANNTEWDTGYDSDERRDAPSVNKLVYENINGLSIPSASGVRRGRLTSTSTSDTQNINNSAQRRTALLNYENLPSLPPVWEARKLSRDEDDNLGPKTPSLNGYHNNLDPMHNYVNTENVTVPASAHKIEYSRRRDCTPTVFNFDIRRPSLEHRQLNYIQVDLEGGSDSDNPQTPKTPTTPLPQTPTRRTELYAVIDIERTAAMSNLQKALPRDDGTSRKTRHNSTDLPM
Method: By way of chemical synthesis we received the specified compounds. Stomach cancer cells Snu16 expressing FGFR2 were cultivated according to the standard method. A part of the cells was left for negative control, FGF-2 was added to the other part (positive control). Therapeutic groups included: addition of the inhibitor according to formula V and subsequent stimulation of FGF-2, addition of the inhibitor according to formula IX and subsequent stimulation of FGF-2, addition of the inhibitor according to formula XI and subsequent stimulation of FGF-2. The Western-blotting method was used for assessment of the phosphorylation level of various kinases.

[3] = tested on: collagen-induced arthritis; assay: Collagen-induced arthritis model; format: in vivo; conditions: mice, 100 mg/kg through a tube for 40 days
Method: Collagen-induced arthritis model was used in the research. Arthritic was induced in mice by intradermal injections of collagen of the II type combined with Freund's adjuvant. The mice were randomized into 2 groups of 5 animals in each one: • group 1: control, water through a tube for 40 days. • group 2: inhibitor described by formula III in this invention, 100 mg/kg, through a tube for 40 days. On the 40 day, the mice were subjected to euthanasia, the tissue was studied.

[4] = tested on: PI3K; assay: Western blotting of PI3K phosphorylation in HUVEC, Caki-1, KATO III cells; format: cell-based; conditions: P=0.017
Method: (§1) According to the procedure described above, the phosphorylation levels of type 1-3 fibroblast growth factor receptors, FRS2, and also phosphorylation levels of VEGFR1 and intracellular kinases PI3K, p44/42(MAPK), Akt, mTOR were analyzed by the Western-blotting method.
(§2) Endothelial cells HUVEC, human renal cell carcinoma of Caki-1 type, stomach cancer cells KATO III were used in the research. All the mentioned cells expressed various types of the mentioned receptors. Just like in Example 5, a part of the cells stimulated FGF-2 and/or VEGF-A, a part of the cells was cultivated with the inhibitor described by Formula VIII, a part of the cells left without stimulation and treatment.

[5] = biological target: FGFR2 (Homo sapiens, UniProt P21802); assay: Western blotting of FGFR2 phosphorylation in HUVEC, Caki-1, KATO III cells; format: cell-based
Sequence of FGFR2 (Homo sapiens, UniProt P21802) (P21802 22-821, species assumed): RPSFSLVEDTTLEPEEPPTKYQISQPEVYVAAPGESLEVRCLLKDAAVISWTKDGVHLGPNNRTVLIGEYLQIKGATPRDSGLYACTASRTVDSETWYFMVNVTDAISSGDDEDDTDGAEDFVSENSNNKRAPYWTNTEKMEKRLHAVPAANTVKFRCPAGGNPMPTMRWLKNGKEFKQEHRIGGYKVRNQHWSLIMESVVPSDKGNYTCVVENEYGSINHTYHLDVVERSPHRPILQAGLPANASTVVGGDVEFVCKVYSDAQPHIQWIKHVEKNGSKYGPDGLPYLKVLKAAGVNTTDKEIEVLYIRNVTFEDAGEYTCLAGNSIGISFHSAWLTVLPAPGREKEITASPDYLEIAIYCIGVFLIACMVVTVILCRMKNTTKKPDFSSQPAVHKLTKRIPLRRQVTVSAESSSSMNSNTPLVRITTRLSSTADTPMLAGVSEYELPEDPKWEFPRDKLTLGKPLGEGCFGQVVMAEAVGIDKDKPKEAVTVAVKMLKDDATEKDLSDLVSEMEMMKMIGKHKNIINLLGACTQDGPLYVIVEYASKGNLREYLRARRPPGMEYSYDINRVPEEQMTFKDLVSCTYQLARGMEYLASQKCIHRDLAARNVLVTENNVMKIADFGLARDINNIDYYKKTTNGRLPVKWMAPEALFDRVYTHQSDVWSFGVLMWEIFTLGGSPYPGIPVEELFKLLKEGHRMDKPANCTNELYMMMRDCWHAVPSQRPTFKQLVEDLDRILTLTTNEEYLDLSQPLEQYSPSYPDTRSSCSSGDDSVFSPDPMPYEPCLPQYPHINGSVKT
Method: as §1, §2

[6] = biological target: T2, FGFR3 (Homo sapiens, UniProt P22607); assay: Western blotting of FGFR3 phosphorylation in HUVEC, Caki-1, KATO III cells; format: cell-based
T2 construct: endogenous in cells; host or cells: HUVEC, Caki-1, KATO III
T2 sequence (P22607 23-806): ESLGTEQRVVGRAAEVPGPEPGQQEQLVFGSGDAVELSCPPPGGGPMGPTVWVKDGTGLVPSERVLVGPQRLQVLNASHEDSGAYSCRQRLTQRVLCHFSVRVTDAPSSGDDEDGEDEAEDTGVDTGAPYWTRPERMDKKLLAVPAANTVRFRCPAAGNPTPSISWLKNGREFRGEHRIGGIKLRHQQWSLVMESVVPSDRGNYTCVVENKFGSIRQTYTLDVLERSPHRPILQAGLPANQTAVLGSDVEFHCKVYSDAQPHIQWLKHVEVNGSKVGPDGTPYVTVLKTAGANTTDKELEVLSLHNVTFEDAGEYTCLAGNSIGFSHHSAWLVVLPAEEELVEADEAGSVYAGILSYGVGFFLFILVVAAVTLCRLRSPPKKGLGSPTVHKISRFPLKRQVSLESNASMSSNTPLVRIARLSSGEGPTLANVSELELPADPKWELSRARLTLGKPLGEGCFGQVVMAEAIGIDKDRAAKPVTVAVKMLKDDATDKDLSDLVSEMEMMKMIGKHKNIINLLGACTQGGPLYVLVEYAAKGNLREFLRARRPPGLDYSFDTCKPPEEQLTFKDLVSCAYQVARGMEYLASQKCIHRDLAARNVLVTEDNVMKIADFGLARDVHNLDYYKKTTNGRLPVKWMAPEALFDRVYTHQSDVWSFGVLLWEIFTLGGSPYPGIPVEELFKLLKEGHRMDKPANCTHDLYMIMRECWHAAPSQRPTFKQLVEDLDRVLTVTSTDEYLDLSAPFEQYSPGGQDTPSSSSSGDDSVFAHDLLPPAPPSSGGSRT
Method: as §1, §2

[7] = biological target: T3, VEGFR1 (Homo sapiens, UniProt P17948); assay: Western blotting of VEGFR1 phosphorylation in HUVEC, Caki-1, KATO III cells; format: cell-based
T3 construct: endogenous in cells; host or cells: HUVEC, Caki-1, KATO III
T3 sequence (P17948 27-1338): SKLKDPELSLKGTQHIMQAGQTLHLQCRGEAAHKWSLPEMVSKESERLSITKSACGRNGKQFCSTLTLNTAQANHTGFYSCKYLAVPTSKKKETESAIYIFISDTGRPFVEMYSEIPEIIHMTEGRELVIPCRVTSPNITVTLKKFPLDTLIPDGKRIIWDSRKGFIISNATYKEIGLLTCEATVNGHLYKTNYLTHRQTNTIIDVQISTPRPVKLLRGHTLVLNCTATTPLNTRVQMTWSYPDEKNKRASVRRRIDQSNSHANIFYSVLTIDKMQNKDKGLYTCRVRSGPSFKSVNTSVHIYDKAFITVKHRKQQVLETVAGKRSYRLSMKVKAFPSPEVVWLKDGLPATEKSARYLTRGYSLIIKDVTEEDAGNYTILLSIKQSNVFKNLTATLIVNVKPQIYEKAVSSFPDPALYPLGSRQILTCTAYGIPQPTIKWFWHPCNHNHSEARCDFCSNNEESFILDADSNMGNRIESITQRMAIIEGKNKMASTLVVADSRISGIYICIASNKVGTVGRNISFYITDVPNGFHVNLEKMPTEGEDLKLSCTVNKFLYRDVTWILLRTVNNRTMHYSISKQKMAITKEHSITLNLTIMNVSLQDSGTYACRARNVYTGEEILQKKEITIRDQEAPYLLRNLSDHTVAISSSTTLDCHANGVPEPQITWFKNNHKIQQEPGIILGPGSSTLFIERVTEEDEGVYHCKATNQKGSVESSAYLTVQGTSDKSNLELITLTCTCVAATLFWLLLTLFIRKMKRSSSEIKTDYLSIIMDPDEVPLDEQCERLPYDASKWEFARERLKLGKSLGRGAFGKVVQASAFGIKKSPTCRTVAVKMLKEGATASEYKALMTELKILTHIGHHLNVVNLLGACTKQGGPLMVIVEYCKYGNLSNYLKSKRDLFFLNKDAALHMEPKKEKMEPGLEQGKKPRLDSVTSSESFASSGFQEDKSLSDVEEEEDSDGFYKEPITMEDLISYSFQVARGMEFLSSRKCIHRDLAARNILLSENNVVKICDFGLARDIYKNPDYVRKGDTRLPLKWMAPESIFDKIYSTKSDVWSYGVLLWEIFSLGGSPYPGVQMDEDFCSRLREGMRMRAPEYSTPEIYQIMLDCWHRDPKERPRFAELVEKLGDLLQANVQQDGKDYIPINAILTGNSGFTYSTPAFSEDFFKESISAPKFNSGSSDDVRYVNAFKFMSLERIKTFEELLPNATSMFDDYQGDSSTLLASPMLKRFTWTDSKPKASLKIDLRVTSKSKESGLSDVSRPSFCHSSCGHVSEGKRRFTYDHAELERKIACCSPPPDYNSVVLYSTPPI
Method: as §1, §2

[8] = biological target: T4, FGFR1 (Homo sapiens, UniProt P11362); assay: Western blotting of FGFR1 phosphorylation in HUVEC, Caki-1, KATO III cells; format: cell-based
T4 construct: endogenous in cells; host or cells: HUVEC, Caki-1, KATO III
T4 sequence (P11362 22-822): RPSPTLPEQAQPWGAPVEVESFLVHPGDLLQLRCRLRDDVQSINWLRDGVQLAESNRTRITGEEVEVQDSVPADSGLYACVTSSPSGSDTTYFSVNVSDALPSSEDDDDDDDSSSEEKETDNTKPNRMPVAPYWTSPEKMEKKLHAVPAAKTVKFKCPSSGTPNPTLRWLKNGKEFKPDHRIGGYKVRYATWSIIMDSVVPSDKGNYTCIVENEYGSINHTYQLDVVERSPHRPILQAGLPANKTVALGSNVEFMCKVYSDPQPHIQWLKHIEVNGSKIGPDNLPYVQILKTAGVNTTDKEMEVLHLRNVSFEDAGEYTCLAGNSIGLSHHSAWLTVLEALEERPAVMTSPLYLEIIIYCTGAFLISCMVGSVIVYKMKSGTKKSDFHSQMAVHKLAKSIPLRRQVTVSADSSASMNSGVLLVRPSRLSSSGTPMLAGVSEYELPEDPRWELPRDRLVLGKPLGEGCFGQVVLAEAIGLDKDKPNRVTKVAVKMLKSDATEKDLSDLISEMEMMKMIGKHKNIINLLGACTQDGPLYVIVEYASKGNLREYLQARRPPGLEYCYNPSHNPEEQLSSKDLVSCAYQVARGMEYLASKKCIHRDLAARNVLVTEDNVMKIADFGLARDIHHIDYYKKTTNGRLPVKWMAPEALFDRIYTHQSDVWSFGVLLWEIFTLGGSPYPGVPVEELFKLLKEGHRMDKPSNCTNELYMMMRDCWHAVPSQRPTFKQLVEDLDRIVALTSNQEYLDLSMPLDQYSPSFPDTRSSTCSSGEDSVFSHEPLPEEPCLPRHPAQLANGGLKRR
Method: as §1, §2

[9] = tested on: p44/42(MAPK), Akt, mTOR; assay: Western blotting of other kinases in HUVEC, Caki-1, KATO III cells; format: cell-based
Method: as §1, §2

[10] = biological target: T1, FRS2; assay: Western blotting of FRS2 phosphorylation in HUVEC, Caki-1, KATO III cells; format: cell-based; parameters: endogenous in cells; conditions: P=0.001
Method: as §1, §2

[11] = tested on: FGFR2; assay: Automated Western blotting of FGFR2 phosphorylation in Snu16 cells; format: cell-based; conditions: 100 mcg/ml, FGF-2 stimulation
Method: (§3) Stomach cancer cells Snu16 were sawn in 96-cavity plates with a size of 90 mcl/cavity. After 24 hours of incubation in a damped incubator at a temperature of 37 C, 5% CO2 and 95% air to cells were the tested dissolved agent described by formula VI in the volume of 100 mcg/ml, and then FGF-2 was added as a stimulator.
(§4) After the days of cultivation by the method of automated Western-blotting, the phosphorylation level of the following proteins: FGFR2, FRS2α, FRS2β, Shp2, Grb2 was studied in the cells. After another 24 hours of the cultivation, the cells were counted.

[12] = tested on: FRS2α and FRS2β; assay: Automated Western blotting of FRS2α and FRS2β phosphorylation in Snu16 cells; format: cell-based; conditions: FGF-2 stimulation
Method: as §3, §4

[13] = tested on: Shp2 and Grb2; assay: Automated Western blotting of Shp2 and Grb2 phosphorylation in Snu16 cells; format: cell-based; conditions: noted in some cells
Method: as §3, §4

[14] = tested on: Snu16 cells; assay: Proliferation of stomach cancer cells Snu16 (cell count); format: cell-based
Method: as §3, §4
After the next cultivation the number of the cells equaled between the groups, and also with the control (stimulation of FGF-2, without cultivation with the inhibitor). See the results in Table 1.

[15] = tested on: angiogenesis stimulated by bFGF; assay: Matrigel implant angiogenesis stimulated by bFGF; format: in vivo, mice; conditions: Matrigel implants in mice; intraperitoneally day 0, 3, 6; RPT835 15 mg/kg, Bevacizumab 10 mg/kg
Method: (§5) Eighteen hybrid mice of the 1 generation F1 (C57B1/6×DBA/2), males with a weight of 22-30 g are used in the research. The mice (nomenclature number M02.13.00011) were received from a branch of nursery “Stolbovaya”. The method described earlier was used in the experiment [Passaniti A., 1992]. The control and experiment groups had at least 3 mice. Aliquots (1,000 mcl) of Matrigel (BD Biosciences) containing heparin 60 conventional units/ml, VEGF (200 ng/ml, BD Biosciences) or bFGF (100 ng/ml, BD Biosciences) were prepared on ice. Matrigel containing heparin 60 conventional units/ml was used as negative control. Matrigel was injected in the mice subcutaneously into the side part of the back. After injection, Matrigel quickly forms single, hard gel-like implant. A weight of the inhibitor was dissolved in DMSO to concentration of 10^−2M. Aliquots were frozen down to −20° C. and unfrozen immediately before injection. Refreezing of the solution was not allowed. The tested and standard objects were administered intraperitoneally on the 0, 3 and 6 day of Matrigel impintation: Bevacizumab in a dose of 10 mg/kg and RPT835-15 mg/kg. Seven days after administration of Matrigel, the mice were put into sleep with diethyl ether to remove the implant. The implants were fixed for 24-36 hours in 10% neutral formalin and enclosed in paraffin for further histological research.

[16] = tested on: angiogenesis in the implants containing VEGF; assay: Matrigel implant angiogenesis stimulated by VEGF; format: in vivo; conditions: Matrigel implants in mice; 10 mg/kg intraperitoneally day 0, 3, 6; p<0.001
Method: as §5

Compound: Cc1cc2c(F)c(Oc3ncnn4cc(OC[C@@H](C)O)c(C)c34)ccc2[nH]1 [Brivanib, reference compound]
- IC50 [1]: 289 nM

Compound: Cc1cc(N)c(NS(=O)(=O)c2cccc(C(=O)O)c2)cc1-c1cncnc1 [Inhibitor V, 3-(N-(2-amino-4-methyl-5-(pyrimidin-5-yl)phenyl)sulfamoyl)benzoic acid]
- transmission of the signal from FGFR to FRS2 [2]: interfere with transmission of the signal from FGFR to FRS2

Compound: Cc1cc([N+](=O)[O-])c(NS(=O)(=O)c2cccc(C(=O)O)c2)cc1-c1cncnc1 [Inhibitor III, 3-(N-(4-methyl-2-nitro-5-(pyrimidin-5-yl)phenyl)sulfamoyl)benzoic acid]
- tissue findings (infiltration) [3]: Only insignificant infiltration with single neutrophils

Compound: O=C(O)c1cccc(Nc2cccc3ncccc23)c1 [Inhibitor XI, 3-(quinoline-5-ylamine)benzoic acid]
- transmission of the signal from FGFR to FRS2 [2]: interfere with transmission of the signal from FGFR to FRS2

Compound: O=C1CN(C(=O)c2cccc(C(=O)O)c2)c2ccccc2N1 [Inhibitor VIII, 3-(3-oxo-1,2,3,4-tetrahydroquinoxaline-1-carbonyl)benzoic acid]
- decrease of phosphorylation of PI3K [4]: 10 times
- decrease of phosphorylation of FGFR2 (weakly) [5]: 1.5 times
- decrease of phosphorylation of FGFR3 (weakly) [6]: 1.8 times
- decrease of phosphorylation of VEGFR1 (weakly) [7]: 2.3 times
- level of FGFR1 phosphorylation [8]: even increased
- influence on other kinases [9]: did not have influence on other kinases
- decrease of phosphorylation of FRS2 [10]: 14 times

Compound: CC1C(=O)Nc2ccccc2N1C(=O)c1cccc(C(=O)O)c1 (stereo not drawn) [Inhibitor IX, 3-(2-methyl-3-oxo-1,2,3,4-tetrahydroquinoxalyne-1-carbonyl)benzoic acid]
- IC50 [1]: 32 nM
- transmission of the signal from FGFR to FRS2 [2]: interfere with transmission of the signal from FGFR to FRS2

Compound: Cc1cc(NNc2cc(C)c(-c3cccnc3)cc2NS(=O)(=O)c2cccc(C(=O)O)c2)c(NS(=O)(=O)c2cccc(C(=O)O)c2)cc1-c1cccnc1 [Inhibitor VI]
- phosphorylation of FGFR2 [11]: did not suppress
- IC50 [12]: < 10 nM
- suppression of phosphorylation of FRS2α and FRS2β [12]: 12 times
- suppression of Shp2 and Grb2 protein phosphorylation [13]: more than 10 times
- proliferation compared with control group ([14]; group with phosphorylation suppression of FRS2 and Shp2 and/or Grb2, P < 0.0001): suppression,
- proliferation compared with control group ([14]; group with phosphorylation suppression of FRS2 and without influence on phosphorylation of Shp2 and/or Grb2, P < 0.0001): suppression,

Compound: Bevacizumab: standard object blocking VEGF-stimulated angiogenesis, 10 mg/kg [reference compound]
- angiogenesis stimulated by bFGF [15]: but not angiogenesis induced by bFGF
- angiogenesis in the implants containing VEGF [16]: completely blocked
